Source: US20190212343A1, “METHODS FOR THE TREATMENT OF DISORDERS RELATED TO PHOSPHORYLATION OF HISTONES” (H. LEE MOFFITT CANCER CENTER AND RESEARCH INSTITUTE, INC., priority 2014, published 2019)
“Also recorded” adds a separate entry of the source.

Assays:
[1] = tested on: histone H3 Tyr99-phosphorylation (ACK1); experiment: Histone H3 Tyr99-phosphorylation in HEK293 cells (pY99-H3 immunoprecipitation / H3 immunoblot); assay type: cell-based; conditions: HEK293 cells
Protocol: FIGS. 3A-3E show Ack1 phosphoryltes H3 at Tyr99 residue. […] (FIG. 3B) HEK293 cells co-expressing Myc-tagged Ack1 (WT) or KD mutant ACK1 and FLAG-tagged H3 or Y99F mutant […] were serum-starved (24h) and lysates were immunoprecipitated with pY99-H3 antibodies followed by immunoblotting with FLAG antibody (top panel). (FIG. 3C) HEK293 cells were treated with EGF ligand for indicated time points. Equal amounts of lysates were immunoprecipitated pY99-H3 antibodies followed by with immunoblotting with H3 antibody (top panel). (FIG. 3D) HEK293 cells were treated with ACK1 inhibitor, AIM-100 (5 uM overnight) and/or EGF ligand 20 min. Equal amounts of lysates were immunoprecipitated pY99-H3 antibodies followed by with immunoblotting with H3 antibody (top panel). […] (FIG. 3E) HEK293 cells were treated with increasing concentrations of AIM-100 (1, 2, 3 and 5 μM). Equal amounts of lysates were immunoprecipitated pY99-H3 antibodies followed by with immunoblotting with H3 antibody (top panel).
The Tyrosine99 or Y99 site in H3 protein is evolutionarily conserved (FIG. 3A). To examine whether H3 is ACK1 kinase substrate, HEK293 cells were co-transfected with HA-tagged ACK1 and FLAG-tagged H3 or FLAG-tagged Y99F mutant H3 expressing constructs. ACK I specifically phosphorylated H3 protein, but not the Y99F mutant protein (FIG. 3B). […]

[2] = tested on: histone H3 Tyr99-phosphorylation (ACK1); experiment: Histone H3 Tyr99-phosphorylation in JAR cells (immunoblotting); assay type: cell-based, human; conditions: EGF+AIM-100
Protocol: FIGS. 5A-5D show ACK1 deposits pY99-H3 epigenetic marks in SLC6A4 promoter and intron 2. (FIG. 5A) Lysates prepared from JAR cells treated with EGF ligand were subjected to immunoblotting with indicated antibodies. (FIG. 5B) Lysates prepared from JAR cells treated with EGF or AIM-100 were subjected to immunoblotting with indicated antibodies. (FIG. 5C) Total RNA was prepared from JAR cells untreated or treated with EGF ligand followed by quantitative RT-PCR using SLC6A4 and actin primers. The ratio of SLC6A4 to actin is shown. (FIG. 5D) JAR cells were treated with EGF ligand and ChIP was performed using pY99-H3 antibodies followed by quantitative PCR using primers corresponding to intron 2 (VNTR).
JAR cells are human placenta-derived epithelial cells that express SLC6A4 or SERT. Applicant first assessed presence of ACK1 signaling in JAR cells by treating these cells with EGF ligand. […] ACK1 activation was also reflected in histone H3 Tyr99-phosphorylation (FIG. SA, 2nd panel).
To validate critical role of ACK1 in histone H3 Tyr99-phosphoryation, JAR cells were treated with EGF or EGF+AIM-100.

SLC6A4 mRNA = SLC6A4 mRNA expression (real time RT-PCR); assay type: cell-based, human; conditions: inhibition of ACK1 by small molecule inhibitor
Protocol: The ratio of SLC6A4 to actin is shown. (FIG. 5D) JAR cells were treated with EGF ligand and ChIP was performed using pY99-H3 antibodies followed by quantitative PCR using primers corresponding to intron 2 (VNTR). […]
Applicant also identified for the first time that human and mouse serotonin transporter (SLC6A4 or SERT or 5-HTT) gene expression is regulated by ACK1. A novel mechanism was identified that is operational in SLC6A4 gene regulation. ACK1 deposits pY99-H3 epigenetic marks in promoter (5-HTTLPR) and intron 2 (VNTR) of SLC6A4 gene to regulate its transcription. […] Without being bound by theory, applicant believes that expression of Gabra6, Slc6a2, Slc6a4, Slc6a5 and Oxt genes as well as genes shown in Table 2 are also regulated by ACK1/pY99-H3 epigenetic activity/signaling.

AR protein levels = AR protein levels in androgen deprived prostate cancer cells (immunoblotting); assay type: cell-based, human; conditions: androgen deprived LNCaP and VCaP cells, 2.5, 5 and 10 uM
Protocol: (FIG. 6A) Androgen starved LAPC4 cells were treated with DHT (10 nM, 16 Hrs), AIM-100, DZI-067, Enzalutamide or PLX4032 (7 uM, 36 Hr) and AR, pACK1 and Actin levels were determined by immunoblotting (IB). The relative level of AR is shown below. (FIG. 6B) Androgen deprived LNCaP and VCaP cell were untreated or treated with 2.5, 5 and 10 uM of AIM-100 and lysates were immunoblotted. The quantitation of AR expression is shown. (FIG. 6C) Androgen deprived LNCaP and VCaP cell were untreated or treated with 2.5, 5 and 10 uM of DZI-067 and lysates were immunoblotted. The quantitation of AR expression is shown. (FIG. 6D) LNCaP cells were transfected with control and Ack1 siRNAs followed by immunoblotting. (FIG. 6E) LNCaP cells treated with AIM-100 (7 uM, 16 hr) or MG 132 (10 uM, 6 hr) were immunoblotted with AR antibodies. […]
AR has been known to interact with an ubiquitin E3 ligase, RNF6, causing AR ubiquitination, which in turn promoted AR transcriptional activity (Xu, K. et al. (2009) Cancer Cell 15(4):270-282). To determine whether post-translational modification has role to play in suppression of AR levels upon Ack1 kinase inhibition, LNCaP cells were treated with proteosomal inhibitor, MG-132 and AR levels were measured in presence or absence of AIM-100.

AR mRNA = AR mRNA levels in androgen-deprived prostate cancer cells (qPCR with AR primers); assay type: cell-based, human; conditions: androgen-deprived LAPC4 and LNCaP cells, overnight treatment
[3] = tested on: AR and H3K4me3 at intron 2 of AR gene; experiment: ChIP with AR or H3K4me3 antibodies and qPCR at intron 2 of AR gene; assay type: cell-based, human; conditions: LNCaP cells, absence of androgen
Protocol: LNCaP cells treated with AIM-100 and ChIP was performed using AR, H3K4me3 or IgG antibodies followed by qPCR using primers corresponding to intron 2, or control region. *p<0.05, **p<0.05.

Structure (SMILES): c1ccc(-c2oc3ncnc(NC[C@@H]4CCCO4)c3c2-c2ccccc2)cc1 [AIM-100]
- concentration resulting in complete loss of pY99-H3 ([1]; increasing concentrations of inhibitor): 0.5 μM
- histone H3 Tyr99-phosphorylation ([1]; inhibitor 5 uM overnight, EGF ligand 20 min): complete loss of histone H3 Tyr99-phosphorylation; also recorded: suppressed histone H3 Tyr99-phosphorylation
- histone H3 Tyr99-phosphorylation [2]: almost complete loss of histone phosphorylation
- SLC6A4 mRNA expression (SLC6A4 mRNA): significant loss of SLC6A4 mRNA expression
- AR protein levels (AR protein levels): concomitant decrease in AR protein levels
- AR mRNA levels (AR mRNA): significantly suppressed
- AR enrichment at intron 2 of AR gene [3]: abolished
- H3K4me3 methyl marks at intron 2 of AR gene [3]: abolished
